Laboratory results: PubChem BioAssay (NCI)
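In this assay, cells in 96-well plates receive the compound at five concentrations for 48 hours. Endpoints are linearly interpolated between the surrounding concentrations. Definition used: TGI = concentration required for complete inhibition of growth.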

What was measured:
Assay in all cases: NCI anticancer screen, dose series, 48 h
786-0 renal = test system: 786-0 renal
A498 renal = test system: A498 renal
A549 NSCLC = test system: A549 NSCLC
ACHN renal = test system: ACHN renal
CAKI-1 renal = test system: CAKI-1 renal
CCRF-CEM leukemia = test system: CCRF-CEM leukemia
COLO 205 colon = test system: COLO 205 colon
DLD-1 colon = test system: DLD-1 colon
DMS 273 small cell lung = test system: DMS 273 small cell lung
EKVX NSCLC = test system: EKVX NSCLC
HCC-2998 colon = test system: HCC-2998 colon
HCT-15 colon = test system: HCT-15 colon
HL-60(TB) leukemia = test system: HL-60(TB) leukemia
HOP-62 NSCLC = test system: HOP-62 NSCLC
HOP-92 NSCLC = test system: HOP-92 NSCLC
HT29 colon = test system: HT29 colon
IGROV1 ovarian = test system: IGROV1 ovarian
K-562 leukemia = test system: K-562 leukemia
KM12 colon = test system: KM12 colon
LOX IMVI melanoma = test system: LOX IMVI melanoma
M14 melanoma = test system: M14 melanoma
M19-MEL melanoma = test system: M19-MEL melanoma
MALME-3M melanoma = test system: MALME-3M melanoma
MOLT-4 leukemia = test system: MOLT-4 leukemia
NCI-H23 lung = test system: NCI-H23 lung
NCI-H460 lung = test system: NCI-H460 lung
NCI-H522 lung = test system: NCI-H522 lung
OVCAR-3 ovarian = test system: OVCAR-3 ovarian
OVCAR-4 ovarian = test system: OVCAR-4 ovarian
OVCAR-5 ovarian = test system: OVCAR-5 ovarian
OVCAR-8 ovarian = test system: OVCAR-8 ovarian
RPMI-8226 leukemia = test system: RPMI-8226 leukemia
RXF 393 renal = test system: RXF 393 renal
RXF-631 renal = test system: RXF-631 renal
SF-268 CNS = test system: SF-268 CNS
SF-295 CNS = test system: SF-295 CNS
SF-539 CNS = test system: SF-539 CNS
SK-MEL-2 melanoma = test system: SK-MEL-2 melanoma
SK-MEL-28 melanoma = test system: SK-MEL-28 melanoma
SK-MEL-5 melanoma = test system: SK-MEL-5 melanoma
SK-OV-3 ovarian = test system: SK-OV-3 ovarian
SNB-19 CNS = test system: SNB-19 CNS
SNB-75 CNS = test system: SNB-75 CNS
SNB-78 CNS = test system: SNB-78 CNS
SR leukemia = test system: SR leukemia
SW-620 colon = test system: SW-620 colon
TK-10 renal = test system: TK-10 renal
U251 CNS = test system: U251 CNS
UACC-257 melanoma = test system: UACC-257 melanoma
UACC-62 melanoma = test system: UACC-62 melanoma
UO-31 renal = test system: UO-31 renal
XF 498 CNS = test system: XF 498 CNS
DMS 114 small cell lung = test system: DMS 114 small cell lung
HOP-18 NSCLC = test system: HOP-18 NSCLC
KM20L2 colon = test system: KM20L2 colon
LXFL 529 NSCLC = test system: LXFL 529 NSCLC
NCI-H226 lung = test system: NCI-H226 lung
SN12C renal = test system: SN12C renal

Compound `COC1=CC(=O)C2C(C1=O)[C@@H]1c3ccccc3C[C@H]21` (stereo not given in full) has a TGI (786-0 renal) greater than 100 µM, a TGI (A498 renal) greater than 100 µM and a TGI (A549 NSCLC) greater than 100 µM. It also gave a TGI (ACHN renal) greater than 100 µM, a TGI (CAKI-1 renal) greater than 100 µM and a TGI (CCRF-CEM leukemia) greater than 100 µM. The TGI (COLO 205 colon) was greater than 100 µM, the TGI (DLD-1 colon) was greater than 100 µM and the TGI (DMS 273 small cell lung) was greater than 100 µM. For the same compound, the TGI (EKVX NSCLC) was greater than 100 µM, the TGI (HCC-2998 colon) was greater than 100 µM and the TGI (HCT-15 colon) was greater than 100 µM. The TGI (HL-60(TB) leukemia) was greater than 100 µM, the TGI (HOP-62 NSCLC) was greater than 100 µM and the TGI (HOP-92 NSCLC) was greater than 100 µM. It also gave a TGI (HT29 colon) greater than 100 µM, a TGI (IGROV1 ovarian) greater than 100 µM and a TGI (K-562 leukemia) greater than 100 µM. For the same compound, the TGI (KM12 colon) was greater than 100 µM, the TGI (LOX IMVI melanoma) was greater than 100 µM and the TGI (M14 melanoma) was greater than 100 µM. It also gave a TGI (M19-MEL melanoma) greater than 100 µM, a TGI (MALME-3M melanoma) greater than 100 µM and a TGI (MOLT-4 leukemia) greater than 100 µM. The TGI (NCI-H23 lung) was greater than 100 µM, the TGI (NCI-H460 lung) was greater than 100 µM and the TGI (NCI-H522 lung) was greater than 100 µM. It also gave a TGI (OVCAR-3 ovarian) greater than 100 µM, a TGI (OVCAR-4 ovarian) greater than 100 µM and a TGI (OVCAR-5 ovarian) greater than 100 µM. For the same compound, the TGI (OVCAR-8 ovarian) was greater than 100 µM, the TGI (RPMI-8226 leukemia) was greater than 100 µM and the TGI (RXF 393 renal) was greater than 100 µM. It also gave a TGI (RXF-631 renal) greater than 100 µM, a TGI (SF-268 CNS) greater than 100 µM and a TGI (SF-295 CNS) greater than 100 µM. For the same compound, the TGI (SF-539 CNS) was greater than 100 µM, the TGI (SK-MEL-2 melanoma) was greater than 100 µM and the TGI (SK-MEL-28 melanoma) was greater than 100 µM. For the same compound, the TGI (SK-MEL-5 melanoma) was greater than 100 µM, the TGI (SK-OV-3 ovarian) was greater than 100 µM and the TGI (SNB-19 CNS) was greater than 100 µM. The TGI (SNB-75 CNS) was greater than 100 µM, the TGI (SNB-78 CNS) was greater than 100 µM and the TGI (SR leukemia) was greater than 100 µM. The TGI (SW-620 colon) was greater than 100 µM, the TGI (TK-10 renal) was greater than 100 µM and the TGI (U251 CNS) was greater than 100 µM. The TGI (UACC-257 melanoma) was greater than 100 µM, the TGI (UACC-62 melanoma) was greater than 100 µM and the TGI (UO-31 renal) was greater than 100 µM. It also gave a TGI (XF 498 CNS) greater than 100 µM.
`Clc1ccc(Cc2nc3ccccc3s2)c(Cl)c1` gave a TGI (786-0 renal) of 27.8 µM, a TGI (A498 renal) of 41.5 µM and a TGI (A549 NSCLC) of 42.1 µM. For the same compound, the TGI (ACHN renal) was 34.9 µM, the TGI (CAKI-1 renal) was 31.2 µM and the TGI (CCRF-CEM leukemia) was 22.7 µM. It also gave a TGI (COLO 205 colon) of 31.5 µM, a TGI (DLD-1 colon) of 29 µM and a TGI (DMS 114 small cell lung) of 36.5 µM. For the same compound, the TGI (DMS 273 small cell lung) was 33.6 µM, the TGI (EKVX NSCLC) was 42.1 µM and the TGI (HCC-2998 colon) was 33.4 µM. The TGI (HCT-15 colon) was 36.5 µM, the TGI (HL-60(TB) leukemia) was 35.3 µM and the TGI (HOP-18 NSCLC) was 31.4 µM. It also gave a TGI (HOP-62 NSCLC) of 32.9 µM, a TGI (HT29 colon) of 40.3 µM and a TGI (IGROV1 ovarian) of 30.6 µM. The TGI (K-562 leukemia) was 36.2 µM, the TGI (KM12 colon) was 34.9 µM and the TGI (KM20L2 colon) was 52 µM. The TGI (LOX IMVI melanoma) was 31.4 µM, the TGI (LXFL 529 NSCLC) was 31.1 µM and the TGI (M14 melanoma) was 31.3 µM. The TGI (M19-MEL melanoma) was 30.5 µM, the TGI (MALME-3M melanoma) was 30.9 µM and the TGI (MOLT-4 leukemia) was 41.2 µM. For the same compound, the TGI (NCI-H226 lung) was 39.1 µM, the TGI (NCI-H460 lung) was 41.4 µM and the TGI (NCI-H522 lung) was 30.9 µM. The TGI (OVCAR-3 ovarian) was 33 µM, the TGI (OVCAR-4 ovarian) was 27 µM and the TGI (OVCAR-5 ovarian) was 38.7 µM. It also gave a TGI (OVCAR-8 ovarian) of 38.4 µM, a TGI (RPMI-8226 leukemia) of 48.5 µM and a TGI (RXF 393 renal) of 36 µM. The TGI (RXF-631 renal) was 30.1 µM, the TGI (SF-268 CNS) was 30.5 µM and the TGI (SF-295 CNS) was 31.8 µM. The TGI (SF-539 CNS) was 12 µM, the TGI (SK-MEL-2 melanoma) was 32.7 µM and the TGI (SK-MEL-28 melanoma) was 33.1 µM. The TGI (SK-MEL-5 melanoma) was 32.6 µM, the TGI (SK-OV-3 ovarian) was 43.3 µM and the TGI (SN12C renal) was 30.3 µM. For the same compound, the TGI (SNB-19 CNS) was 49.1 µM, the TGI (SNB-75 CNS) was 34.5 µM and the TGI (SW-620 colon) was 46.4 µM. It also gave a TGI (TK-10 renal) of 38.4 µM, a TGI (UACC-257 melanoma) of 34.8 µM and a TGI (UACC-62 melanoma) of 28.9 µM. For the same compound, the TGI (UO-31 renal) was 30 µM and the TGI (XF 498 CNS) was 26.5 µM.
